Measured values from patent US20230398205A1, “SARS-COV-2 IMMU[…] CONSTRUCTS AND USES THEREOF” (TScan Therapeutics, Inc., priority 2020, published 2023).
Where two headings read alike, the source gives them in different places. Where no end group is shown, it is not given here.

Columns and labels:
Assay type in all cases: cell-based, human
[1] = system: memory CD8 T cells from convalescent COVID-19 patients
[2] = system: memory CD8+ T cells specific for A*02:01 epitopes; conditions: Allele A02
[3] = system: naïve CD8 T cells isolated from healthy donors; conditions: 10 days of expansion; tetramer staining; FIG. 14, FIG. 15

NTCDGTTFTY [NTC]
% of Pts (Screen M+ 2SD) ([1]; Allele A01): 60%

LLYDANYFL [LLY]
% of Pts (Tetramer) [2]: 55.6%

YLQPRTFLL [YLQ]
expansion of peptide-specific T cells from the naïve T cell population [3]: induces an expansion of peptide-specific T cells

DTDFVNEFY [DTD]
% of Pts (Screen M+ 2SD) ([1]; Allele A01): 40%

LLLDRLNQL [LLL]
% of Pts (Screen M+ 2SD) ([1]; Allele A02): 33.3%
% of Pts (Tetramer) [2]: 22.2%
